# Reference: ChEMBL document CHEMBL1201862, “PubChem BioAssay data set” (2004)
#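 Test compounds were applied to cells in 96-well plates for 48 hours at 5 doses. GI50 = concentration required for 50% inhibition of growth.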 The source made the active and inactive calls. Cut-off read from the data, not from the text of the source: active = GI50 up to about 1.1 µM and inactive = higher.
# What was measured:
# Assay in all cases: growth of human tumour cells (NCI), 48 h
# [1] = tested on: OVCAR-8
# [2] = tested on: T47D
# [3] = tested on: LOX IMVI
# [4] = tested on: DU-145
# [5] = tested on: NCI-H23
# [6] = tested on: HT-29
# [7] = tested on: OVCAR-4
# [8] = tested on: HCT-15
# [9] = tested on: NCI/ADR-RES
# [10] = tested on: SNB-19
# [11] = tested on: HCC 2998
# [12] = tested on: UACC-62
# [13] = tested on: M14
# [14] = tested on: UACC-257
# [15] = tested on: NCI-H522
# [16] = tested on: KM12
# [17] = tested on: ACHN
# [18] = tested on: CCRF-CEM
Structure (SMILES),GI50 [1],GI50 [2],GI50 [3],GI50 [4],GI50 [5],GI50 [6],GI50 [7],GI50 [8] [µM],GI50 [9],GI50 [10],GI50 [11],GI50 [12],GI50 [13],GI50 [14],GI50 [15],GI50 [16],GI50 [17],GI50 [18]
CN(C)Cc1cc(/N=N/c2ccccc2Cl)cc(CN(C)C)c1O,45.5 µM (inactive),> 100 µM (inactive),16.9 µM (inactive),> 100 µM (inactive),> 100 µM (inactive),42.9 µM (inactive),60.1 µM (inactive),> 100,63.7 µM (inactive),> 100 µM (inactive),48.2 µM (inactive),26.2 µM (inactive),29.4 µM (inactive),20.1 µM (inactive),12.3 µM (inactive),77.6 µM (inactive),> 100 µM (inactive),25.6 µM (inactive)
CCOC(=O)c1c(N2CCCC2)[nH]c(=O)c(C(c2c(O)c(C(=O)OCC)c(N3CCCC3)[nH]c2=O)C(C)C)c1O,> 100 µM (inactive),> 100 µM (inactive),> 100 µM (inactive),> 100 µM (inactive),71.1 µM (inactive),> 100 µM (inactive),> 100 µM (inactive),> 100,> 100 µM (inactive),70.6 µM (inactive),52.8 µM (inactive),> 100 µM (inactive),> 100 µM (inactive),> 100 µM (inactive),43.5 µM (inactive),> 100 µM (inactive),> 100 µM (inactive),> 100 µM (inactive)
COC(=O)c1ccccc1C1CN=NC12Cc1ccc(C)cc1C2=O (stereo not given),> 100 µM (inactive),29.4 µM (inactive),48.1 µM (inactive),> 100 µM (inactive),59 µM (inactive),42.6 µM (inactive),32.8 µM (inactive),56.1,36.6 µM (inactive),70.3 µM (inactive),64.7 µM (inactive),68.7 µM (inactive),65.2 µM (inactive),93.1 µM (inactive),30.5 µM (inactive),37.9 µM (inactive),> 100 µM (inactive),> 100 µM (inactive)
O=C1CC2(CCNCC2)C(=O)N1N1CCOCC1,> 100 µM (inactive),> 100 µM (inactive),> 100 µM (inactive),> 100 µM (inactive),> 100 µM (inactive),> 100 µM (inactive),> 100 µM (inactive),> 100,> 100 µM (inactive),> 100 µM (inactive),> 100 µM (inactive),> 100 µM (inactive),> 100 µM (inactive),> 100 µM (inactive),> 100 µM (inactive),> 100 µM (inactive),> 100 µM (inactive),> 100 µM (inactive)
Cc1ccc(S(=O)(=O)NN=C2C(C)(C)CC2(C)C)cc1,> 100 µM (inactive),> 100 µM (inactive),> 100 µM (inactive),> 100 µM (inactive),> 100 µM (inactive),> 100 µM (inactive),> 100 µM (inactive),> 100,> 100 µM (inactive),> 100 µM (inactive),> 100 µM (inactive),> 100 µM (inactive),> 100 µM (inactive),> 100 µM (inactive),> 100 µM (inactive),> 100 µM (inactive),> 100 µM (inactive),68.7 µM (inactive)
O=C(CC(O)(C(F)(F)F)C(F)(F)F)C(c1ccccc1)C(O)(C(F)(F)F)C(F)(F)F (stereo not given),14.8 µM (inactive),13.1 µM (inactive),55.7 µM (inactive),26.1 µM (inactive),6.47 µM (inactive),15.2 µM (inactive),> 100 µM (inactive),9.53,8.87 µM (inactive),18.3 µM (inactive),9.1 µM (inactive),20.5 µM (inactive),41.2 µM (inactive),31.8 µM (inactive),38.3 µM (inactive),8.55 µM (inactive),17.4 µM (inactive),5.56 µM (inactive)
N#CC1CCCC2SC(F)(F)C(F)(F)C12 (stereo not given),> 100 µM (inactive),> 100 µM (inactive),41.6 µM (inactive),> 100 µM (inactive),> 100 µM (inactive),> 88.5 µM (inactive),> 100 µM (inactive),> 100,> 100 µM (inactive),> 100 µM (inactive),> 100 µM (inactive),> 100 µM (inactive),> 100 µM (inactive),> 100 µM (inactive),> 87.5 µM (inactive),> 100 µM (inactive),> 100 µM (inactive),26.4 µM (inactive)
O=S(=O)(c1ccccc1)n1c2ccc(Br)cc2c2nc3ccccc3nc21,> 100 µM (inactive),> 100 µM (inactive),> 100 µM (inactive),> 100 µM (inactive),> 100 µM (inactive),> 100 µM (inactive),> 100 µM (inactive),> 100,> 100 µM (inactive),> 100 µM (inactive),> 100 µM (inactive),> 100 µM (inactive),> 100 µM (inactive),> 100 µM (inactive),> 100 µM (inactive),> 100 µM (inactive),> 100 µM (inactive),> 100 µM (inactive)
CC(=O)NNc1nc(C)c(C(/C=C/c2ccc([N+](=O)[O-])cc2)=N/NC(N)=S)s1,> 100 µM (inactive),> 100 µM (inactive),> 100 µM (inactive),> 100 µM (inactive),> 100 µM (inactive),> 100 µM (inactive),> 100 µM (inactive),> 100,> 100 µM (inactive),> 100 µM (inactive),> 100 µM (inactive),> 100 µM (inactive),> 100 µM (inactive),> 100 µM (inactive),> 100 µM (inactive),> 100 µM (inactive),> 100 µM (inactive),> 100 µM (inactive)
CCOC(=O)/C1=C(\C)N(c2ccc(C)cc2)C(=O)c2ccccc2C(=O)c2c(O)ccc(O)c21,18.9 µM (inactive),13.4 µM (inactive),16.7 µM (inactive),32.2 µM (inactive),24.7 µM (inactive),19.5 µM (inactive),3.66 µM (inactive),14.4,14.9 µM (inactive),47.5 µM (inactive),16.5 µM (inactive),28 µM (inactive),19.1 µM (inactive),15.8 µM (inactive),18.7 µM (inactive),23 µM (inactive),14.2 µM (inactive),20.6 µM (inactive)
N#CC1=C(N2CCCC2)NC(=O)CC1=O,> 100 µM (inactive),74 µM (inactive),> 100 µM (inactive),> 100 µM (inactive),> 100 µM (inactive),> 100 µM (inactive),> 100 µM (inactive),> 100,> 100 µM (inactive),> 100 µM (inactive),> 100 µM (inactive),> 100 µM (inactive),> 100 µM (inactive),> 100 µM (inactive),> 100 µM (inactive),> 100 µM (inactive),> 100 µM (inactive),> 100 µM (inactive)
COc1ccc(-n2nnc(C(N)=O)c2O)cc1,> 100 µM (inactive),> 100 µM (inactive),> 100 µM (inactive),> 100 µM (inactive),> 100 µM (inactive),> 100 µM (inactive),> 100 µM (inactive),> 100,> 100 µM (inactive),> 100 µM (inactive),> 100 µM (inactive),> 100 µM (inactive),> 100 µM (inactive),> 100 µM (inactive),> 100 µM (inactive),> 100 µM (inactive),> 100 µM (inactive),> 100 µM (inactive)
C=C1[C@H](OC(=O)C(C)C)[C@]23CC4(O)[C@@H]5[C@@]6(C)CCC[C@]57C([C@@H]2C[C@@]1(O)[C@H](O)[C@@H]73)N4C6,> 100 µM (inactive),> 100 µM (inactive),> 100 µM (inactive),> 100 µM (inactive),> 100 µM (inactive),> 100 µM (inactive),> 100 µM (inactive),> 100,> 100 µM (inactive),> 100 µM (inactive),27 µM (inactive),> 100 µM (inactive),> 100 µM (inactive),> 100 µM (inactive),> 100 µM (inactive),> 100 µM (inactive),72.8 µM (inactive),> 100 µM (inactive)
O=C(/C=C/c1ccc(O)c(O)c1)OCCOC(=O)/C=C/c1ccc(O)c(O)c1,32.2 µM (inactive),24.7 µM (inactive),28.6 µM (inactive),24.7 µM (inactive),29.4 µM (inactive),21.4 µM (inactive),39.1 µM (inactive),35.1,39.8 µM (inactive),40.3 µM (inactive),31.8 µM (inactive),18.7 µM (inactive),14.7 µM (inactive),17.9 µM (inactive),20 µM (inactive),17.6 µM (inactive),31.3 µM (inactive),33.1 µM (inactive)
CC(=O)OC(C)(C)[C@H]1O[C@]23O[C@]1(C)C[C@@H](C)[C@@H]2[C@@]1(C)CC[C@@]24C[C@@]25CC[C@H](O[C@@H]2OC[C@@H](O)[C@H](O)[C@H]2O)C(C)(C)[C@@H]5CC[C@H]4[C@]1(C)[C@H]3O,10.8 µM (inactive),17.6 µM (inactive),3.27 µM (inactive),4.34 µM (inactive),4.84 µM (inactive),8.38 µM (inactive),3.95 µM (inactive),3.41,7.73 µM (inactive),6.27 µM (inactive),9.93 µM (inactive),14.6 µM (inactive),8.59 µM (inactive),18.8 µM (inactive),7.28 µM (inactive),3.35 µM (inactive),6.07 µM (inactive),5.94 µM (inactive)
